Values belong to the compound of their own block, whether it stands above or below them.
How the values were obtained:
[1] = tested on: integrin α4β7 on Treg surface; assay: Induction of integrin α4β7 on bulk Treg surface by RARα agonists (FIG. 6); assay type: cell-based; conditions: bulk CD4+CD25+CD127− Tregs, 12 days stimulation, reducing agonist concentrations
Description: Bulk Tregs (CD4+CD25+CD127−) Tregs (50,000 per well) were expanded in vitro with reducing concentrations of the agonists. Culture conditions: 2 aCD3/aCD28 beads/cell, 1000IU/mL IL-2, 0.1 nM Rapamycin+Agonist in X-vivo 15. Following 12 days stimulation, cells were stained for CD4, CD25, CD127, FOXP3, Integrin a4, Integrin b7, CD15s, CD161 and acquired on a BD symphony flow cytometer. Data was analysed in Flowjo and Prism.

integrin α4β7 on Tregs = assay: α4β7 expression on ex vivo expanded CD45RA+ Tregs from CD patients (flow cytometry); assay type: cell-based, human; conditions: CD4+CD25hiCD127loCD45RA+ Tregs cultured with rapamycin and high dose IL-2 plus the agonist; mean ± SD
Description: “Complete X-VIVO-15” (Lonza, Walkersville, MD) was used for ex vivo Treg expansion, Treg cytokine challenge experiments and Treg suppression assays. This was supplemented with 100 nM or 10 nM Rapamycin and all-trans retinoic acid (ATRA) 2 μM or 1 nM, or Rapamycin and RAR568 1 nM.
(§1) FACS-sorted Treg populations were plated at 1×10^6 or 0.5×10^6 in X-VIVO-15 medium and activated with anti-CD3/anti-CD28 coated beads (Dynabeads®, Invitrogen, Paisley, UK) at 1:1 bead: cell ratio. Rapamycin was added at day 0 of culture at a final concentration of 100 nM/L +/−ATRA 1 nM/L or RAR568 1 nM/L. Next, 1,000 IU/ml recombinant human IL-2 (rhlL-2) (Proleukin®, Novartis, Camberley, UK) was added at day 5 of culture. Cells were re-stimulated every 10-12 days and expanded for a total of 24-30 days. The phenotype and suppressive ability were assessed at the end of the culture period.
Flow cytometry panels have been designed to assess the subtypes of regulatory T cells in patients with CD as well as their expression of gut homing molecules. Gating was performed based on natural populations when assessing for CD4^+CD25^highCD127low populations, as well as for CD45RA^+ Treg populations. Additionally, to minimize bias in the assessment of expression of gut homing markers and transcription factors, a fluorochrome minus one (FMO) panel was added for each marker of interest in each experiment that was performed. […]

integrin β7 on Tregs = assay: Dose response of integrin β7 induction on expanded Tregs; assay type: cell-based; conditions: Homo sapiens; Tregs in in vitro culture, FIG. 2c; read-out: EC50 to induce the expression of integrin β7
Description: as §1
(§2) Flow cytometry panels have been designed to assess the subtypes of regulatory T cells in patients with CD as well as their expression of gut homing molecules. Gating was performed based on natural populations when assessing for CD4^+CD25^highCD127low populations, as well as for CD45RA^+ Treg populations. Additionally, to minimize bias in the assessment of expression of gut homing markers and transcription factors, a fluorochrome minus one (FMO) panel was added for each marker of interest in each experiment that was performed.

FOXP3 in Tregs = assay: FOXP3 expression of ex vivo expanded Tregs; assay type: cell-based, human; conditions: Tregs expanded in the presence of the agonist
Description: as §1, §2

Effector T cells (Teff) = assay: Treg suppression assay (proliferation of CFSE-labelled Teff); assay type: cell-based, human; conditions: lowest (8:1) Teff:Treg titration, FIG. 2e
Description: Effector T cells (Teff) were labelled with carboxyfluorescein succinimidyl ester (CFSE, Invitrogen) according to standard protocols. Cells were washed with phosphate buffered saline (PBS) to remove excess protein. Cells were then incubated with a 1 μM/L CFSE solution in the dark at room temperature for 4 minutes. The reaction was then quenched with 9 ml of complete medium.
Teff were activated with anti-CD3/anti-CD28 micro beads at a bead: Teff ratio of 0.02:1. 1×10^5 Teff were then cultured either alone or with Tregs in serial dilutions. The ratios of Teff: Treg were 1:1, 2:1, 4:1, and 8:1. This was done in X-VIVO-15 and proliferation rates were assessed by flow cytometry after 5 days of incubation.
Percentage suppression (S) of proliferation was calculated using the following formula:
Where c=percentage of proliferating precursors in the presence of Tregs and d=percentage of proliferating precursors in the absence of Tregs.

Ex vivo expanded Tregs = assay: IL-17 and IFNγ production under pro-inflammatory cytokine challenge (ELISA); assay type: cell-based, human; conditions: Tregs expanded ex vivo in the presence of the agonist, FIG. 2f
Description: Cytokine concentrations were measured using the Ready-SET-Go sandwich ELISA kits from eBioscience.
Ex vivo expanded Tregs were activated with CD3/CD28 beads at a 1:20 ratio and cultured at 10^6cells/m1 in X-VIVO for 5 days at 37° C./5% CO2, supplemented with the following cytokine cocktail: A) IL-2 (10 IU/mL, Proleukin); (B) IL-2, IL-1 (10 ng/mL), IL-6 (4 ng/mL) and transforming growth factor-β (TGF-β (5 ng/mL), IL-21 (25 ng/mL), IL-23 (25 ng/mL) (all R&D Systems). Supernatant IL-17 and interferon gamma (IFNγ) concentrations were measured by ELISA.

Tregs from CD patients = assay: Gene array of expanded Tregs from CD patients; assay type: cell-based, human
Description: Gene array analyses were carried out using Partek® software with a 1-way ANOVA to assess for differential gene expression.
1) RNA extraction was performed using Qiagen RNEasy mini/micro kits as per manufacturer's instructions. The samples were checked for RNA quality using the Agilent 2100 Bioanalyzer and quantified using the Nanodrop (ND-1000 Spectrophotometer). Samples which passed QC (RIN>8) were chosen such that input amount of each sample was 3 ng.
2) SPIA cDNA was generated using the “Ovation Pico WTA System V2” kit from Nugen, following the manufacturer's instructions.
3) The SPIA cDNA was subjected to a QC check to assess quality (Agilent 2100 Bioanalyzer) and quantity (Nanodrop ND-1000 Spectrophotometer) for the next stage.
4) The SPIA cDNA was fragmented and Biotin-labelled using the “Encore Biotin Module” from Nugen according to the manufacturer's instructions and passed through QC checks to assess fragmentation size (Agilent 2100 Bioanalyzer).
6) Hybridization cocktails were prepared of the fragmented labelled-cDNA according to Nugen's recommendations and hybridized at 45° C. overnight in an oven.
7) The arrays were washed and stained using wash protocol FS450_0002 (Affymetrix protocol recommended for Human Gene 2.0 Arrays on the GeneChip Fluidics station 450.
8) The arrays were scanned using the Affymetrix GeneChip Scanner.
Gene expression analyses were performed on Tregs from CD patients expanded in the presence of Rapa+ATRA, Rapa+RAR568 or rapamycin only (n=3 in each group). […] CD161 has previously been described as a marker of T helper (Th) 17-like Tregs^32. This was not observed in the RAR568-treated group. […] IL-18 Receptor 1 and STAT4 are responsible for Th1 lineage commitment and IFNγ production, both have been independently identified as IBD disease related polymorphisms on GWAS^33-36. CD38 has been identified as a marker associated with mature T cells, signaling reduced proliferation, but an increased ability to produce pro-inflammatory cytokines such as IFNγ^37. Ligation of GPR174 negatively affects Treg accumulation and function^38. No clear difference in transcripts for canonical pathways were identified when ATRA treated cells were compared with RAR568 treated cells.
To assess for off target RARγ effects, we compared the gene expression profiles of RAR568 and ATRA treated cells to a published dataset of RARγ target genes^39. […] Given the efficacy at inducing α4β7 and lack of off target effects, RAR568 fulfilled the target product profile for an agent that could be used for ex vivo Treg expansion for cell-based therapy purposes. Therefore, we probed this effect of RAR568 on Tregs from CD patients in functional in vitro and in vivo trafficking assays.

MAdCAM-1 = assay: In-vitro trafficking assay, MAdCAM-1 coated Ibidi flow chamber; assay type: cell-based, human; conditions: cells treated with monoclonal antibody to integrin α4β7, FIG. 4
Description: Ibidi (Martinsreid, Germany) μ-Slides VI″ were coated with recombinant human MAdCAM-1 (R&D Systems, Minneapolis, Minn.), at a concentration of 10μg/ml and incubated overnight. Cells from two CD patients that had previously undergone ex vivo expansion under two parallel conditions (Rapa and Rapa+RAR568) and had been frozen in liquid nitrogen were defrosted and rested overnight. Rested cells were then activated with rhCCL25 (R&D systems) and passed through the coated Ibidi flow chamber at a rate of 1 dyne/cm^2. The total number of cells, as well as those rolling, adherent and crawling was quantified from six randomly selected fields of view per treatment.
In order to assess the physiological relevance of the induction of α4β7 expression by RAR568, treated and untreated Tregs from CD patients were passed through a MAdCAM-1 coated flow chamber (FIG. 10). The total number of cells adherent to the chamber, as well as their stages of rolling, adhesion and crawling, were compared to cells that were expanded under standard conditions.

Compound: CC1(C)CCC(C)(C)c2cc(NC(=O)c3ccc(C(=O)O)cc3)ccc21 [AM80, tamibarotene]
- induction of integrin α4β7 on Treg surface [1]: comparable effects

Compound: CC1(C)CCC(C)(C)c2cc(C(=O)Nc3ccc(C(=O)O)cc3)ccc21 [AM580]
- induction of integrin α4β7 on Treg surface [1]: comparable effects

- EC50 (integrin β7 on Tregs): 1.5 nM
- RARγ target genes upregulated (Tregs from CD patients; off target RARγ effects, compared to published dataset, FIG. 3b): Eleven
Compound: CC1=C(/C=C/C(C)=C/C=C/C(C)=C/C(=O)O)C(C)(C)CCC1 [ATRA, all-trans retinoic acid, reference compound]
- α4β7 expression of expanded Tregs (integrin α4β7 on Tregs): 74.21±25.89
- FOXP3 expression of expanded Tregs (FOXP3 in Tregs; mean ± SD): 86.15±19.88%
- FOXP3 expression, range (FOXP3 in Tregs; range): 40.2-99.7
- Suppressive ability of expanded Tregs (Effector T cells (Teff)): became less suppressive at the lowest titration
- IFNγ production following pro-inflammatory cytokine challenge (Ex vivo expanded Tregs): did not produce
- IL-17 production following pro-inflammatory cytokine challenge (Ex vivo expanded Tregs): did not produce
- transcripts for CD161 (Tregs from CD patients; compared to rapamycin only, n=3): significant increase
- increase in the expression of STAT4, IL18R1, CD38 and GPR174 (Tregs from CD patients; compared to rapamycin only, p<0.05, FIG. 3a): > 2 fold

Compound: Vedolizumab: monoclonal antibody to integrin α4β7
- cell migration of RAR568-treated Tregs in MAdCAM-1 coated flow chamber (MAdCAM-1): All stages of cell migration were blocked

Reference: US20220062340A1, “IMMUNOTHERAPEUTIC METHODS AND COMPOSITIONS” (KING'S COLLEGE LONDON, priority 2018, published 2022)
